This is an account of results in ChEMBL document CHEMBL1201862, “PubChem BioAssay data set” (2004).

The subject of one assay is HeLa. Put plainly: HeLa cell cytotoxicity, dose response, cytotoxicity control for MITF activator project, CellTiter-Glo luminescence, cherry-pick samples (AID 540259). The class given is functional, cell-based. The following applies: Homo sapiens.
Assay [1] is described as follows: off-target signal loss in HeLa-CEM21 co-culture – HeLa F-luc CTL cells, cherry-picked, counter-screen for HIV-1 Env fusion inhibitor project, dose response (AID 652040).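 Also: potency for signal decrease marking cytotoxic or nonspecific inhibition.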 Format: functional, cell-based.
Assay [2] relates to HEK293. Description: cells. The following applies: Homo sapiens.
A short description of assay [3]: inhibitors of clade B AD8 Env fusion, dose response, cell-based, cherry-pick (AID 652062).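 Also: luciferase signal from cell-cell fusion driven by HIV-1 clade B AD8 Env; potency is for inhibitors of fusion seen as a drop in luminescence.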 The class given is functional.
A short description of assay [4]: inhibitors of HIV Env-driven cell fusion, dose response, cherry-pick (AID 652057). The class given is functional, cell-based.
Assay [5] has as its system HEK293. Description: cells. The following applies: Homo sapiens. The source holds these as a separate data set.
A short description of assay [6]: ZM109 Env clade C HIV-1 fusion inhibitors, dose response, HeLa effector, CEM target cells, luciferase, cherry-pick (AID 652058). Format: functional, cell-based.
Assay [7] deals with T1, Microphthalmia-associated transcription factor (Homo sapiens, UniProt O75030).
T1 sequence (O75030 whole entry): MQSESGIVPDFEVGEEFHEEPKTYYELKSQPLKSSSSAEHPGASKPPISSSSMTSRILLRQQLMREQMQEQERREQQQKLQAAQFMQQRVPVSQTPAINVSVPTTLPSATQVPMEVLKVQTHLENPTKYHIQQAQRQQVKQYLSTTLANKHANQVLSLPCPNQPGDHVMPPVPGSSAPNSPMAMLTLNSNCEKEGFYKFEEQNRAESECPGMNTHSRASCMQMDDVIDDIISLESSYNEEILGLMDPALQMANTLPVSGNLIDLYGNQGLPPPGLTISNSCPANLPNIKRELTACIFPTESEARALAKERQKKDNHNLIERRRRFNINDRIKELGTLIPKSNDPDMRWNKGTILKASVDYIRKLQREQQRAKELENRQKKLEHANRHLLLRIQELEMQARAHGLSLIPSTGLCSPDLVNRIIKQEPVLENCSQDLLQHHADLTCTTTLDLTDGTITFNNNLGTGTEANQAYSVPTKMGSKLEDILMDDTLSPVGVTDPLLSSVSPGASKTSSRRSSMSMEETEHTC
Put plainly: TRPM1 promoter luciferase signal decrease, dose response, MITF inhibitor project, cell-based, SK-MEL-5, cherry-picked, set 3 (AID 493073).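 Also: SK-MEL-5 melanoma cells with luciferase driven by the MITF target TRPM1 promoter.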 Format: functional.

The next assay has as its system A-375. Put plainly: A375 melanoma cell viability reduction, dose response, counter-screen for MITF modulator project, cherry-pick samples, set 2 (AID 540335). As to conditions: Homo sapiens. The class given is functional, cell-based.
In assay [8] the target is Hepatocyte nuclear factor 4-alpha (Homo sapiens, UniProt P41235). Format: functional, cell-based.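 Also: biochemical luminescence-based dose-response counterscreen measuring inhibition of HNF4 dimerization, run alongside a screen for blockers of ABHD5–perilipin-5 interaction; split luciferase complementation of HNF4 fusion proteins in cell lysate measuring dimerization.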
Assay [9] in a line: Luminescence Cell-Based Dose Retest to Confirm Inhibitors of Cancer Stem Cells. [Related pubchem assays (depositor defined):AID2717, AID2721]. Format: functional. As to conditions: Homo sapiens.
The nature of assay [10]: THP-1 cell cytotoxicity, dose response, cytotoxicity control for Vif-APOBEC3G degradation inhibitor project, THP-1 cells (AID 1117359). The following applies: Human immunodeficiency virus 1, THP-1. The class given is functional.
A further assay concerns the target Beta-galactosidase (Escherichia coli, UniProt Q8VNN2). Put plainly: PubChem AID 485352. Format: functional.
For assay [11], the target named is T2, Type-1 angiotensin II receptor (Homo sapiens, UniProt P30556).
T2 sequence (P30556 whole entry): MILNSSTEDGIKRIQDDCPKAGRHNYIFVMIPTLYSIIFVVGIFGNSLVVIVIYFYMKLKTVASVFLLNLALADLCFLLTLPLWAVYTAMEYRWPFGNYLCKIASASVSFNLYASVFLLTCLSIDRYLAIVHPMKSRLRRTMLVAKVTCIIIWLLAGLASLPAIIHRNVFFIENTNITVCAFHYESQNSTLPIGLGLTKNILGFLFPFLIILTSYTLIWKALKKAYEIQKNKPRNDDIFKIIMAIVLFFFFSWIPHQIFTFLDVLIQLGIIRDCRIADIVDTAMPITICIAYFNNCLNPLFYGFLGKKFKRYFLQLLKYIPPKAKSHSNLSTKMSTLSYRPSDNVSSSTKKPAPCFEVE
Put plainly: AT1 receptor antagonists, dose response, selectivity assay for APJ receptor antagonist project, cell-based, uHTS hits (AID 463214).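 Also: antagonist potency against angiotensin II stimulated AT1 response.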 The class given is functional.

Assay [12] has as its system HEK293. Description: cells. Format: functional, cell-based. As to conditions: Homo sapiens.
Assay [13] deals with T3, Nucleotide-binding oligomerization domain-containing protein 2 (Homo sapiens, UniProt Q9HC29). Put plainly: PubChem AID 2334. The class given is functional.
The subject of assay [14] is HEK293. Description: NOD2 signaling inhibitors in MDP-stimulated cells, cell-based, uHTS, luminescence (AID 2001). The class given is functional. As to conditions: Homo sapiens.
For assay [15], the system named is HEK293. Description: cells. As to conditions: Homo sapiens. The source holds these as a separate data set.
Assay [16] concerns HEK293. Put plainly: NOD1 signaling inhibitors, primary screen, cell-based, luminescence, uHTS (AID 1578). The class given is functional. As to conditions: Homo sapiens.
Assay [17] deals with HEK293. Put plainly: cells. The class given is functional, cell-based. As to conditions: Homo sapiens. This is another data set of the same source.
Assay [18] relates to HEK293. Description: cells. Format: functional, cell-based. As to conditions: Homo sapiens. This is another data set of the same source.
Assay [19] deals with Nucleotide-binding oligomerization domain-containing protein 1 (Homo sapiens, UniProt Q9Y239). Put plainly: NOD1 signaling inhibitors, SAR follow-up, revised (AID 2333). Format: functional.
The target of assay [20] is T3, Nucleotide-binding oligomerization domain-containing protein 2. Put plainly: NOD2 signaling inhibitors, cell-based, luminescence, uHTS, HEK293 (AID 1566). Format: functional.
The next assay concerns the target Tumor necrosis factor (Homo sapiens, UniProt P01375). Put plainly: TNFa-triggered NF-kB activation inhibitors, SAR follow-up, cell-based, revised (AID 2337). Format: functional.
Assay [21] deals with T4, Endoribonuclease toxin MazF (Escherichia coli K-12, UniProt P0AE70).
T4 sequence (P0AE70 whole entry): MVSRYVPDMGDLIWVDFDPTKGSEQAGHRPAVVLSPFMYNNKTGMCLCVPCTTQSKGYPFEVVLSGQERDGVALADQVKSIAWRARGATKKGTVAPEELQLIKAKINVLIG
Put plainly: fluorescent RNA oligo signal without MazF, dose response, counter-screen for MazEF activator project, biochemical, fluorescence, single-stranded RNase substrate (AID 588502). The class given is functional.

For assay [22], the target named is T4, Endoribonuclease toxin MazF. Put plainly: MazF toxin RNase activators, dose response, biochemical, fluorescence, single-stranded RNA substrate, uHTS hits (AID 588481). Format: functional.

Active and inactive are the calls of the source. Bounds are passed on as bounds.

T3 sequence (Q9HC29 whole entry, the tested form may be a part): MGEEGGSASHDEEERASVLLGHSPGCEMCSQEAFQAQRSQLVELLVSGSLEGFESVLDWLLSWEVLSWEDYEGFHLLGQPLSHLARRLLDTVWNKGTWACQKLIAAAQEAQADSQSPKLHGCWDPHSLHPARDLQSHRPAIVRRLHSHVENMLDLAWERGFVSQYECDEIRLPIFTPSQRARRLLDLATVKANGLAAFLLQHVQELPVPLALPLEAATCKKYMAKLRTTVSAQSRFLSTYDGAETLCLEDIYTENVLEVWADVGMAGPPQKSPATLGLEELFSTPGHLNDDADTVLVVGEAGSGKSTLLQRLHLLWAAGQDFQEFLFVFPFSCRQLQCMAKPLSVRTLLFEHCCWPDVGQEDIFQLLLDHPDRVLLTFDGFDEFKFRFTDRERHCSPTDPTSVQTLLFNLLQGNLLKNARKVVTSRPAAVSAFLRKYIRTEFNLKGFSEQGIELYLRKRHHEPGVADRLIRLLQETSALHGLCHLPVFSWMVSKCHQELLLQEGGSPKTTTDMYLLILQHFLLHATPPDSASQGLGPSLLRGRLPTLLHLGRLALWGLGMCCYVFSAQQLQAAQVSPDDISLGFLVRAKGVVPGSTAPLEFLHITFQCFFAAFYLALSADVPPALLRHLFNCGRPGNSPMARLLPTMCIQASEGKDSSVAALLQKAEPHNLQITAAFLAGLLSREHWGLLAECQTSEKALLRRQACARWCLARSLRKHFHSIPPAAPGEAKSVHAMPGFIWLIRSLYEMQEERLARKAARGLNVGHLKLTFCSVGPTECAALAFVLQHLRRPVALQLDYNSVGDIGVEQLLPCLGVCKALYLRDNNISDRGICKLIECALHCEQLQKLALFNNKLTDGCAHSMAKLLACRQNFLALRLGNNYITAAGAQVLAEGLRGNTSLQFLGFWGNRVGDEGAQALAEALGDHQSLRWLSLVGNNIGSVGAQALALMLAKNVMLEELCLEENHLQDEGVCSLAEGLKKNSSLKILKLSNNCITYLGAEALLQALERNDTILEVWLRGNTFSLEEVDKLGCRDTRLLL
Tumor necrosis factor, sequence (P01375 whole entry): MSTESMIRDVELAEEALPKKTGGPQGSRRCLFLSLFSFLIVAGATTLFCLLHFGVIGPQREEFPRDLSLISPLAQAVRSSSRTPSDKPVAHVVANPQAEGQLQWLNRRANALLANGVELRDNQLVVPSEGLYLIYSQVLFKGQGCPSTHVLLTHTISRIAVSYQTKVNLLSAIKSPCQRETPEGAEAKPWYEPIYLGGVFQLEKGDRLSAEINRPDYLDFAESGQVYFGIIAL
Beta-galactosidase, sequence (Q8VNN2 whole entry): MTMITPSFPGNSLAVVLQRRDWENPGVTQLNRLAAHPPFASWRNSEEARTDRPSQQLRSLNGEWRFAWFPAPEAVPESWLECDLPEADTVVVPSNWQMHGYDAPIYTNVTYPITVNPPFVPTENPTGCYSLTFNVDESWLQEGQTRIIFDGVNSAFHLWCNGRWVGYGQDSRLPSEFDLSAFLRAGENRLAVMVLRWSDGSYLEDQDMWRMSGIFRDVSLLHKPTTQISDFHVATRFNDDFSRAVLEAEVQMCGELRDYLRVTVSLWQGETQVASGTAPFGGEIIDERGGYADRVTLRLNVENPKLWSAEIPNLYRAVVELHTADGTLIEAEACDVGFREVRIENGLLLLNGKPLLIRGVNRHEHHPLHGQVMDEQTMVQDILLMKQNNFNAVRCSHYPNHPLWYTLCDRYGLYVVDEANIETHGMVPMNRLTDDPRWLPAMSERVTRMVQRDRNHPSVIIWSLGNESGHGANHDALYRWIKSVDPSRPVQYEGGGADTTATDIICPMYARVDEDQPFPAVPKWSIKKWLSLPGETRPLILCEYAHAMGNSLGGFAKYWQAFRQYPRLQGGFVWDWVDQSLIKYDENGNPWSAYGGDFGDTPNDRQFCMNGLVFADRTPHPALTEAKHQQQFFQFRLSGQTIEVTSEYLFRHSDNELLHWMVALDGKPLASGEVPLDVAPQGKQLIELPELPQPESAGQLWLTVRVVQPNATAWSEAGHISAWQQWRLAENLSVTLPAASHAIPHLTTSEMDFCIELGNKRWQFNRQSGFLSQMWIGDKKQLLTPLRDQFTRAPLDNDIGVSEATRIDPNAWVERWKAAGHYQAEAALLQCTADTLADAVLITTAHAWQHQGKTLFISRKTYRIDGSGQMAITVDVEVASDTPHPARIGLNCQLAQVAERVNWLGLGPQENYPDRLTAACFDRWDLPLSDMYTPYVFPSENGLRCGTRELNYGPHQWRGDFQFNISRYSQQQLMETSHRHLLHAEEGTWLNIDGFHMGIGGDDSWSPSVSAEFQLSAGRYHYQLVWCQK
Nucleotide-binding oligomerization domain-containing protein 1, sequence (Q9Y239 whole entry, the tested form may be a part): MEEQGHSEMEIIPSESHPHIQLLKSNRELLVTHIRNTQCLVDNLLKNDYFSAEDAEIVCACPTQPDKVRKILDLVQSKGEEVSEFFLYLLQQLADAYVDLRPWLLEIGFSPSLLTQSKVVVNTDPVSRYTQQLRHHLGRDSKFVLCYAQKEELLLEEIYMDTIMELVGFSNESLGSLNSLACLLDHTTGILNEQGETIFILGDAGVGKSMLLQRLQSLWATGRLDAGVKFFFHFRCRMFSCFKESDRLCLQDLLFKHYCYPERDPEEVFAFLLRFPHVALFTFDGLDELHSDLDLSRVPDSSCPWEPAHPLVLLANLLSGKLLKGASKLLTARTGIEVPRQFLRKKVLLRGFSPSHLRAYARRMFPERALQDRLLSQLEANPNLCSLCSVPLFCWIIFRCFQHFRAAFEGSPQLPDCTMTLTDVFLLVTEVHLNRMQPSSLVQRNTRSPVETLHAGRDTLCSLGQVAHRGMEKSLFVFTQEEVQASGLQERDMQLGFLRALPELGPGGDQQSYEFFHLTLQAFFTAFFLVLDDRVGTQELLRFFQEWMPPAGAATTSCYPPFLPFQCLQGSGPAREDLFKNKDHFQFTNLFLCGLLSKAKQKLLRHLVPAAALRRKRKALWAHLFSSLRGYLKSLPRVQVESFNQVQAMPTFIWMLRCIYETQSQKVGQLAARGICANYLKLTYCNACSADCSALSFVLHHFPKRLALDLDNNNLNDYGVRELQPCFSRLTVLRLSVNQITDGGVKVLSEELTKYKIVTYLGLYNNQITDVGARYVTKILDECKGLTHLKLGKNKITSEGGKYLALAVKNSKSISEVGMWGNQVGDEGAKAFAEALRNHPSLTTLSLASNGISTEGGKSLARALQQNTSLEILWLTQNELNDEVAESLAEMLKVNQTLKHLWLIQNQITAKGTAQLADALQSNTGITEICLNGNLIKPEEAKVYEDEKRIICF
Hepatocyte nuclear factor 4-alpha, sequence (P41235 whole entry, the tested form may be a part): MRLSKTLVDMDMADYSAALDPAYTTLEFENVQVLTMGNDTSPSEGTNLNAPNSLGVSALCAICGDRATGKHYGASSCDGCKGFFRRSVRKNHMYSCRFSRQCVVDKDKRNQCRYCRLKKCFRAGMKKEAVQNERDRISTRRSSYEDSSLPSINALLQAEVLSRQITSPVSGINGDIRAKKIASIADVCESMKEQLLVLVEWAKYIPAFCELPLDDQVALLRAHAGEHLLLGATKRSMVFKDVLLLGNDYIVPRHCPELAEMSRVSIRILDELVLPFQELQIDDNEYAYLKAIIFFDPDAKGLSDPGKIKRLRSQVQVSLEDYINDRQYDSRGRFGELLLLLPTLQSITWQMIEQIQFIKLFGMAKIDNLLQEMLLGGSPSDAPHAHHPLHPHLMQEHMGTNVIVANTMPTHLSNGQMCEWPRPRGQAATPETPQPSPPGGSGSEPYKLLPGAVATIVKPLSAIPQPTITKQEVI

Turning to `Cc1ccsc1CCNC(=O)C1CCC(=O)N(CCc2cccc(F)c2)C1` (centres undefined), the half-maximal activity concentration (AC50) in the assay on HeLa was 99.1 µM (active).

With `CCS(=O)(=O)N1Cc2ccccc2CC1C(=O)NCC12CC3CC(CC(C3)C1)C2` (centres undefined), the AC50 in assay [1] is 7.35 µM (active); in [3], 19.8 µM (active); in [4], 4.37 µM (active); in [6] it was 2.86 µM (active). Besides, the EC50 with HEK293 [2] and in the assay on HEK293 [5] was > 59.7 µM (inactive) in each case.

For the molecule `O=C1NC(=O)N(Cc2ccccc2)C(=O)/C1=C\C=C\c1ccco1`, the EC50 in the assay on HEK293 [2] and with HEK293 [5] was > 59.6 µM (inactive) each time. In addition, the AC50 in assay [7] is 6.29 µM (active); with A-375, 30.6 µM (active); in assay [9] it was 1.48 µM (active). For the same molecule, in assay [8], the IC50 is 1.59 µM (active). In [10], the CC50 is > 40 µM (active).

`NC(S)=NN=C(S)Nc1ccccc1`: on Beta-galactosidase, the EC50 was > 40 µM (inactive). In addition, the IC50 in assay [11] was > 40 µM (not active).

With `O=C(c1ccc(S(=O)(=O)N2CCCCC2)cc1)N1CCN(CCN2C(=O)c3cccc4cccc(c34)C2=O)CC1`, the IC50 with HEK293 [12] was 6.57 µM (active); in assay [13], 6.79 µM (active); with HEK293 [14] it was 8.84 µM (active); in the assay on HEK293 [15], > 20 µM (inactive); in the assay on HEK293 [17], > 20 µM (inactive); in the assay with HEK293 [18], > 20 µM (inactive). Also, the values for the IC50 (in [19]; on Tumor necrosis factor) were 6.08 µM (active) and 5.55 µM (active), respectively. Also, the EC50 (with HEK293 [16]; in assay [20]) was > 20 µM (inactive) in each case.

Regarding `CC(C)(C)c1ccc(C(=O)CSc2nc3ccccc3c(=O)[nH]2)cc1`, the EC50 in assay [21] and in assay [22] was > 99 µM (inactive) throughout.

Regarding `COc1cccc(NC(=O)C(=O)NCCC2CCCCN2S(=O)(=O)c2cccs2)c1` (centres undefined), the AC50 with HeLa was 239 µM (active).
